# Results taken from patent US10266497B2 (ABIDE THERAPEUTICS, INC., priority 2017, dated 2019).
# pIC50: −log10 of the molar value. Where two headings read alike, the source gives them in different places.
# Assays:
# MAGL [1] = target: T1, MAGL (Mus musculus, UniProt O35678); experiment: In vitro competitive activity-based protein profiling, MAGL, mouse; settings: read-out: MAGL % inh. 1 μM (mouse)
# T1 sequence (O35678 1-303): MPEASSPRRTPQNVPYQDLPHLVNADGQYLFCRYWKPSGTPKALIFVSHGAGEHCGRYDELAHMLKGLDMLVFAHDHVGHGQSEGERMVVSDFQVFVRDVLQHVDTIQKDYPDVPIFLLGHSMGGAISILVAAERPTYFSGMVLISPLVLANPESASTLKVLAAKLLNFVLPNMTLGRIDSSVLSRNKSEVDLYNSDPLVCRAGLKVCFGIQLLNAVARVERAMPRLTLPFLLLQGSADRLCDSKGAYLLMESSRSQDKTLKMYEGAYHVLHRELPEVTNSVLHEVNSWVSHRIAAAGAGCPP
# FAAH [2] = target: T2, FAAH (Mus musculus, UniProt O08914); experiment: Mouse brain proteomes from inhibitor treated mice (oral gavage, sacrificed 4 h after administration), FAAH; type: in vivo; set-up: mouse brain membrane fraction for mouse assays; from tissue; host or cells: mouse brain (membrane fraction in vitro; brain proteomes of treated C57Bl/6J mice in vivo); settings: 5 mg/kg oral gavage, C57Bl/6J mice, brain proteome 4 h after administration, read-out: FAAH % inh. 5 mg/kg (mouse)
# T2 sequence (O08914 1-579): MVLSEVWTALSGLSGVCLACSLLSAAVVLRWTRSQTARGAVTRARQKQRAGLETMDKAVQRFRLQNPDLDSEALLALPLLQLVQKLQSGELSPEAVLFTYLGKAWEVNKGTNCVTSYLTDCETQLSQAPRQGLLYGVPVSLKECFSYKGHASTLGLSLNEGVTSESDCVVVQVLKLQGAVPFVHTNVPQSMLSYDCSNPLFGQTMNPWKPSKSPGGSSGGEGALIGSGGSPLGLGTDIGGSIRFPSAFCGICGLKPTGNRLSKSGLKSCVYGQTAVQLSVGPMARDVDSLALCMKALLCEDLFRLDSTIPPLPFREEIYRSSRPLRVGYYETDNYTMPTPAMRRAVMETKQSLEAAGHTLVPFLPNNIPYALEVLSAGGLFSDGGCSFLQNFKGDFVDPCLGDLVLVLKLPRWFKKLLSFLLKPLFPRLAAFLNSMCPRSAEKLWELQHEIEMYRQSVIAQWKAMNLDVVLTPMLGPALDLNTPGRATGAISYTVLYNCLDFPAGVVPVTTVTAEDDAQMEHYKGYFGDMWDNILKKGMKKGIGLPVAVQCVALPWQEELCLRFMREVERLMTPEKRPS
# MAGL [3] = target: T1, MAGL; experiment: Mouse brain proteomes from inhibitor treated mice (oral gavage, sacrificed 4 h after administration); type: in vivo; set-up: mouse brain membrane fraction for mouse assays; from tissue; host or cells: mouse brain (membrane fraction in vitro; brain proteomes of treated C57Bl/6J mice in vivo); settings: 5 mg/kg oral gavage, brain proteome 4 h after administration, read-out: MAGL % inh. 5 mg/kg (mouse)
# FAAH [4] = target: T2, FAAH; experiment: In vitro competitive activity-based protein profiling, FAAH, mouse; settings: read-out: FAAH % inh. 1 μM (mouse)
# FAAH [5] = target: T3, FAAH (Homo sapiens, UniProt O00519); experiment: In vitro competitive activity-based protein profiling, FAAH, human; settings: for inhibition at 1 µM: read-out: FAAH % inh. 1 μM (human)
# T3 sequence (O00519 1-579): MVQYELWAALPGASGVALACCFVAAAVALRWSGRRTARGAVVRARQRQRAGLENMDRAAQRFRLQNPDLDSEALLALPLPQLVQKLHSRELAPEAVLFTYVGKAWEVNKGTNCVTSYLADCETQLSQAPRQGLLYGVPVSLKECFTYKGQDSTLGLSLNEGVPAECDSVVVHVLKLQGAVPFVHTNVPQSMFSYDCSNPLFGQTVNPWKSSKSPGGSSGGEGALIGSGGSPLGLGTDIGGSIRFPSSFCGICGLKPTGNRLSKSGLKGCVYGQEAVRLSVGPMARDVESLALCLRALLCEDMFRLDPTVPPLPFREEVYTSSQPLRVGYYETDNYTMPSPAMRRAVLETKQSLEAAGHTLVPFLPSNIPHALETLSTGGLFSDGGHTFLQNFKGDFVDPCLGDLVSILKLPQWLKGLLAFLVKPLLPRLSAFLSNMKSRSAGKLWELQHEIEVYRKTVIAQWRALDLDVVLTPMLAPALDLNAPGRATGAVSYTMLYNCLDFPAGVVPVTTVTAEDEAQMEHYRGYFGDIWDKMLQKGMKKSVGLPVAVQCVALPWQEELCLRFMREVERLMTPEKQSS
# MAGL [6] = target: T4, MAGL (Homo sapiens, UniProt Q99685); experiment: In vitro competitive activity-based protein profiling, MAGL, human; settings: read-out: MAGL % inh. 1 μM (human)
# T4 sequence (Q99685 1-303): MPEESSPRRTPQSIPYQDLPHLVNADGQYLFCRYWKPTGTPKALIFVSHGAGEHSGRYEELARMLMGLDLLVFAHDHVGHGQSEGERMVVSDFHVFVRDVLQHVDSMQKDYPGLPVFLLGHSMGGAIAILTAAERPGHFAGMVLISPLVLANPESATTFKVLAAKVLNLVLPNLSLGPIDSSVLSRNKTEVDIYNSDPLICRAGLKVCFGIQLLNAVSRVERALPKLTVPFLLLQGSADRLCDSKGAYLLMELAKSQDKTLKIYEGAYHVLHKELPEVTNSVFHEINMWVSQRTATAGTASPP
# FAAH [7] = target: T2, FAAH; experiment: Mouse brain proteomes from inhibitor treated mice (oral gavage, sacrificed 4 h after administration), FAAH; type: in vivo; set-up: mouse brain membrane fraction for mouse assays; from tissue; host or cells: mouse brain (membrane fraction in vitro; brain proteomes of treated C57Bl/6J mice in vivo); settings: 5 mg/kg oral gavage, brain proteome 4 h after administration, read-out: FAAH % inh. 5 mg/kg (mouse)
SMILES,inhibition at 1 µM (MAGL [1]) [%],inhibition at 5 mg/kg (FAAH [2]) [%],inhibition at 5 mg/kg (MAGL [3]; C57Bl/6J mice) [%],inhibition at 1 µM (FAAH [4]) [%],pIC50 (FAAH [5]),inhibition at 1 µM (FAAH [5]) [%],inhibition at 1 µM (MAGL [6]) [%],inhibition at 5 mg/kg (MAGL [3]) [%],inhibition at 5 mg/kg (FAAH [7]) [%]
"O=C(O)c1ccn(C(=O)N2CCN(Cc3cccc(C(F)(F)F)c3N3CCOCC3)CC2)n1 [Example 453, 1-(4-(2-morpholino-3-(trifluoromethyl)benzyl)piperazine-1-carbonyl)-1H-pyrazole-3-carboxylic acid]",> 75,0 to 25,0 to 25,0 to 25,5.00 to 6.00,,,,
"CC1CCC(C)N1c1cc(C(F)(F)F)ccc1CN1CCN(C(=O)n2ccc(C(=O)O)n2)CC1 (stereo not drawn) [Example 114, 1-(4-(2-(2,5-dimethylpyrrolidin-1-yl)-4-(trifluoromethyl)benzyl)piperazine-1-carbonyl)-1H-pyrazole-3-carboxylic acid]",> 75,,,0 to 25,,0 to 25,> 75,0 to 25,0 to 25
"CN(Cc1ccc(C(F)(F)F)cc1N1C2CCC1COC2)C1(C)CCN(C(=O)n2ccc(C(=O)O)n2)CC1 [Example 207, 1-(4-((2-(3-oxa-8-azabicyclo[3.2.1]octan-8-yl)-4-(trifluoromethyl)benzyl)(methyl)amino)-4-methyl-piperidine-1-carbonyl)-1H-pyrazole-3-carboxylic acid]",> 75,,,0 to 25,,0 to 25,> 75,0 to 25,0 to 25
"O=C(O)c1ccn(C(=O)N2C[C@H]3C[C@H](OCc4ccc(Oc5ccc(Cl)cc5)cc4)C[C@H]3C2)n1 [Example 55, 1-(trans-5-((4-(4-chlorophenoxy)benzyl)oxy)octa-hydrocyclopenta[c]pyrrole-2-carbonyl)-1H-pyrazole-3-carboxylic acid]",> 75,,,> 75,,> 75,> 75,0 to 25,0 to 25
"O=C(O)c1ccn(C(=O)N2CCN(Cc3ccc(Cl)cc3N3C4CCC3COC4)CC2)n1 [Example 105, 1-(4-(2-(3-oxa-8-azabicyclo[3.2.1]octan-8-yl)-4-chlorobenzyl)piper-azine-1-carbonyl)-1H-pyrazole-3-carboxylic acid]",> 75,,,0 to 25,,0 to 25,> 75,0 to 25,0 to 25
"O=C(O)c1ccn(C(=O)N2CCN(Cc3ccc(C(F)(F)F)c(N4CC5COCC5C4)c3)CC2)n1 (stereo not drawn) [Example 454, 1-(4-(3-(tetrahydro-1H-furo[3,4-c]pyrrol-5(3H)-yl)-4-(trifluoromethyl)benzyl)piperazine-1-carbonyl)-1H-pyrazole-3-carboxylic acid]",> 75,0 to 25,0 to 25,0 to 25,,0 to 25,> 75,,
"O=C(O)c1ccn(C(=O)N2CCN(Cc3cccc(Oc4cc(C(F)(F)F)ccn4)c3)CC2)n1 [Example 57, 1-(4-(3-((4-(trifluoromethyl)pyridin-2-yl)oxy)benzyl)piper-azine-1-carbonyl)-1H-pyrazole-3-carboxylic acid]",> 75,,,50 to 75,6.00 to 7.00,50 to 75,> 75,0 to 25,0 to 25

# Further lines, results first:
inhibition at 1 µM (MAGL [1]) [%],inhibition at 5 mg/kg (FAAH [2]) [%],inhibition at 5 mg/kg (MAGL [3]; C57Bl/6J mice) [%],inhibition at 1 µM (FAAH [4]) [%],pIC50 (FAAH [5]),inhibition at 1 µM (FAAH [5]) [%],inhibition at 1 µM (MAGL [6]) [%],inhibition at 5 mg/kg (MAGL [3]) [%],inhibition at 5 mg/kg (FAAH [7]) [%],SMILES
> 75,0 to 25,0 to 25,0 to 25,,0 to 25,> 75,,,"CN(Cc1ccc(C(F)(F)F)cc1N1CCCC1)C1(C)CCN(C(=O)n2ccc(C(=O)O)n2)CC1 [Example 456, 1-(4-methyl-4-(methyl(2-(pyrrolidin-1-yl)-4-(trifluoromethyl)benzyl)amino)piper-idine-1-carbonyl)-1H-pyrazole-3-carboxylic acid]"
> 75,,,0 to 25,,0 to 25,> 75,0 to 25,0 to 25,"O=C(O)c1ccn(C(=O)N2CCC3(CCCN3Cc3cc(N4CCCC4)cc(C(F)(F)F)c3)CC2)n1 [Example 88, 1-(1-(3-(pyrrolidin-1-yl)-5-(trifluoromethyl)benzyl)-1,8-diazaspiro[4.5]decane-8-carbonyl)-1 1H-pyrazole-3-carboxylic acid]"
> 75,,,0 to 25,,0 to 25,> 75,0 to 25,0 to 25,"O=C(O)c1ccn(C(=O)N2CCC3(CCCN3Cc3cc4ccc(C(F)(F)F)cc4s3)CC2)n1 [Example 185, 1-(1-((6-(trifluoromethyl)benzo[b]thiophen-2-yl)methyl)-1,8-diazaspiro[4.5]decane-8-carbonyl)-1H-pyrazole-3-carboxylic acid]"
> 75,,,0 to 25,,0 to 25,> 75,0 to 25,0 to 25,"C[C@H]1CCCN1c1cc(C(F)(F)F)ccc1CN1CCN(C(=O)n2ccc(C(=O)O)n2)CC1 [Example 104, (S)-1-(4-(2-(2-methylpyrrolidin-1-yl)-4-(trifluoromethyl)benzyl)piperazine-1-carbonyl)-1H-pyrazole-3-carboxylic acid]"
> 75,,,0 to 25,,0 to 25,> 75,0 to 25,0 to 25,"C[C@@H]1CCCN1c1cc(C(F)(F)F)ccc1CN1CCN(C(=O)n2ccc(C(=O)O)n2)CC1 [Example 95, (R)-1-(4-(2-(2-methylpyrrolidin-1-yl)-4-(trifluoromethyl)benzyl)piperazine-1-carbonyl)-1H-pyrazole-3-carboxylic acid]"
